Data published in patent US7691889B2, “Antimycobacterial compounds” (Lupin Limited, priority 2002, dated 2010).
Converted amounts (≈) assume the structure as drawn.

How the values were obtained:
M. tuberculosis 27294 = experiment: In vitro agar dilution assay (MIC), reference strain; type: cell-based, Mycobacterium tuberculosis; conditions: Middlebrook 7H10
M. kansai = experiment: In vitro agar dilution assay (MIC), M. kansai; type: cell-based; conditions: Table II
Acute toxicity in mice = type: in vivo; conditions: P. O.
[1] = test system: M. tuberculosis ATCC 27294 infection; experiment: Murine model of pulmonary tuberculosis; conditions: for Mean Log10 No. of CFU Lung / Mean Log10 No. of CFU Spleen: 5 day/week for 4 weeks, mice; for Mean Log10 No. of reduction Lung / Mean Log10 No. of reduction Spleen: difference from early controls
M. fortuitum = experiment: In vitro agar dilution assay (MIC), M. fortuitum; type: cell-based; conditions: Table II
[2] = test system: M. tuberculosis clinical isolates, sensitive; experiment: microbe, parasite or virus in culture; type: cell-based, Mycobacterium tuberculosis

## O=C(CCC(=O)c1ccc2ccccc2c1)NC[C@H]1CN(c2ccc([N+]3([O-])CCOCC3)c(F)c2)C(=O)O1 [Compound 30, (S)-N-[[3-(3-fluoro-4-morpholinylphenyl)-2-oxo-5-oxazolidinyl]methyl]-4-(4-2-naphthyl)-4-oxobutanamide-N-oxide]
M. tuberculosis 27294
  MIC against M. tuberculosis 27294: 0.5 µg/mL (≈ 0.959 µM)
M. kansai
  MIC M. kansai: 8.0 µg/mL (≈ 15.3 µM)
Acute toxicity in mice
  LD0 (acute toxicity): > 1000 mg/kg
[1]; 12.5 mg/kg by gavage
  Mean Log10 No. of CFU Lung: 4.34
  Mean Log10 No. of CFU Spleen: 4.30
[1]; 12.5 mg/kg
  Mean Log10 No. of reduction Lung: 0.20
  Mean Log10 No. of reduction Spleen: 0.26
[1]; 25 mg/kg by gavage
  Mean Log10 No. of CFU Lung: 2.21
  Mean Log10 No. of CFU Spleen: 2.13
[1]; 25 mg/kg
  Mean Log10 No. of reduction Lung: 2.30
  Mean Log10 No. of reduction Spleen: 2.49
[1]; 50 mg/kg by gavage
  Mean Log10 No. of CFU Lung: 2.12
  Mean Log10 No. of CFU Spleen: 2.09
[1]; 50 mg/kg
  Mean Log10 No. of reduction Lung: 2.40
  Mean Log10 No. of reduction Spleen: 2.53
M. fortuitum
  MIC M. fortuitum: >16.0 µg/mL
[2]; Table I, agar dilution
  MIC against Clinical isolates Sensitive: 0.5 µg/mL (≈ 0.959 µM)
[2]; Table II
  MIC M. tuberculosis Sensitive: 0.50 µg/mL (≈ 0.959 µM)
